Experimental data reported in patent US8673289B2, “Attenuated uracil auxotroph of an apicomplexan and use thereof” (priority 2007, dated 2014).

Key:
[1] = system: mutants cps1, cps2, cps3, cps4; test: plaque formation in ganciclovir, cps mutants; assay type: cell-based, Toxoplasma gondii
cps1-1 and cps2-1 [2] = test: drug sensitivity of cps1-1 and cps2-1 in replication and plaque assays; assay type: cell-based, Toxoplasma gondii; settings: 10 μM
Excerpt: It is believed that the single recombination into the CPSII locus only partially disrupted expression of CPSII activity in cps1 and cps2. […] Cps1 and cps2 were thus utilized as the parent strain background in which to select a more highly attenuated pyrimidine auxotroph mutant. Both the cps1 and cps2 mutants express a TK allele which was inserted into the CPSII locus. […] Then, approximately 1-2×10^5 cps1 or cps2 parasites was inoculated into a 25 cm^2 HFF flask and selected negatively in the presence of 10 μM ganciclovir plus 200 μM uracil. This is 20 times the dose of ganciclovir necessary to completely block plaque formation of these mutants. […] The parasites which were growing in ganciclovir plus uracil were subcloned in ganciclovir and uracil (same conditions) and individual clones, cps1-1 and cps2-1, were identified from each parent, respectively, for further analysis. The cps1-1 and cps2-1 subclones were first tested for their sensitivity to pyrimethamine. The theory of negative selective in only ganciclovir is that a mutant that disrupts expression of the TK allele should simultaneously acquire sensitivity to pyrimethamine due to loss of the expression of the fused trifunctional DHFR-TK-TS transgene(s) inserted into the CPSII locus of cps1 and cps2.

[3] = system: T. gondii carrying a single allele of TK from pDHFRm2m3-TK-TS; test: plaque formation in ganciclovir, TK-transfected parasites; assay type: cell-based, Toxoplasma gondii
Excerpt: A modified hit and run mutagenesis was devised for knocking out the T. gondii gene encoding CPSII. First, a new plasmid vector was developed for positive and negative selection analogous to the plasmid described by Fox, et al. ((1999) Mol. Biochem. Parasitol. 98:93-103), except using the herpes simplex virus type I thymidine kinase (TK) gene instead of bacterial cytosine deaminase in the linker region of DHFR-TS. To create this plasmid two primers, a forward primer GGGAGATCTATGGCTTCGTACCCCGGCCATCAA (SEQ ID NO:10) and a reverse primer GGGGATCCTCAGTTAGCCTCCCCCATCTCCCG (SEQ ID NO:11) were used to PCR amplify, via standard conditions, the ganciclovir hypersensitive TK75 HSVTK allele (Black, et al. (1996) Proc. Natl Acad. Sci. USA 93:3525-3529). The forward primer contains a BglII site and the reverse primer a BamHI site. Following BamHI and BglII digestion of the ˜1130 bp PCR product, the TK allele was ligated into plasmid pDHFRm2m3-FLG-TS which was digested at the unique BamHI site in the FLAG epitope linker. The TK PCR primers were designed to join with pDHFRm2m3-FLG-TS to produce an in-frame insertion of TK between DHFR and TS in a plasmid called pDHFRm2m3-TK-TS, similar to previously described pDHFRm2m3-CD-TS plasmid (Fox, et al. (1999) supra). The trifunctional enzyme plasmid with TK was tested to confirm function of all three enzymes. […]

[4] = system: parasite nucleoside phosphorylase activity specific for cleavage of deoxyuridine; settings: thymidine at 1000 μM; cited from earlier work
wild-type T. gondii = test: labeling of parasites with [3H]pyrimidines (pyrimidine salvage); assay type: cell-based, Toxoplasma gondii; settings: parasites grown in host cells
Protocol: (§1) Initial experiments primarily involved an enzymatic analysis of drug resistant mutants and the incorporation of various pyrimidine analogs into T. gondii RNA and DNA as an indication of pyrimidine salvage when parasites were grown in either normal host or mutant host cells. All biochemical communications between the parasite and host cells cross the vacuolar membrane which is now known to contain “pores” that permit the passage of nucleobases ranging in molecular mass from 112 daltons up to 244 daltons. The size of the pores is estimated to be approximately 1500 daltons. A T. gondii mutant resistant to 5-fluorodeoxyuridine (FUDR-1) had lost uracil phosphoribosyltransferase (UPRT), an enzyme which is absent in normal host cells (Pfefferkorn (1978) Expt. Parasitol. 44:26-35). […] FUDR-1 mutant parasites were not labeled with [^3H]deoxyuridine. […] FUDR-1 mutant parasites were not labeled with [^3H]uridine. […] FUDR-1 (UPRT knock-out) parasites were not labeled with [^3H]uracil.
Similarly, since uracil only labels the parasite, due to the parasite UPRT, which is absent in the host, the pyrimidine pools of the parasite are also unavailable to the host. Thus, there is no detectable pyrimidine traffic detected between the parasite and host.

cps1 and cps2 mutants = test: pyrimidine dependence of cps1 and cps2 replication and plaque formation; assay type: cell-based, Toxoplasma gondii; settings: for rescue of growth rate / replication of cps1 and cps2: relatively low (thymine, thymidine: moderate) concentrations in medium
Excerpt: However, all of these mutants are somewhat “leaky” in that there was not an absolute growth (replication) dependence on uracil addition to the growth medium for replication. Each of these mutants grows at a moderate (½ of normal) growth rate for the first 2 days following infection of a host cell producing vacuoles that contained 16 to 32 parasites by 3 days post infection. In contrast, RH parasites are lysed out of their primary vacuoles at this time (3 days, >64 parasites). However, the cps mutants slow after 3 days and many parasites never (about ⅓) break out of their primary vacuole. If the primary vacuole breaks, a few parasites can be detected at the site of infection but the infection site always involves a small zone of infection that never forms a visible plaque in a standard 7 day plaque assay. To quantitate growth of these mutants, HFF flasks were inoculated with […] or cps2 parasites (about a multiplicity of infection (MOI) of 1 parasite per 20 HFF cells). After 2 hours of attachment and invasion (all of these mutants have normal attachment and invasion phenotypes as scored by counting percent entered parasites into host cells as a function of time post-inoculation), different concentrations of different pyrimidine compound was added to parallel infected HFF flasks. As a function of time post pyrimidine addition (t=0 hour) the number of parasites per vacuole was scored for 50 vacuoles as described by Fox et al. ((1999) supra). The number of parasite doublings was calculated based on 1 parasite entering each primary vacuole. Thus, 1 doubling=2 parasites per vacuole, 3 doublings=8 parasites per vacuole, and 5 doublings=32 parasites per vacuole. The pyrimidine dependence of cps1 and cps2 replication (doublings of parasites in the vacuole) was plotted graphically. […] The response to thymine and thymidine was additionally informative about the cause of the growth defect in cps1 and cps2. […] This is believed to be caused by the putative defect in the cps1 and cps2 mutants which is a reduced “pool” size of UMP. If UMP pools (ultimately used for RNA and DNA synthesis) are lowered it follows that a resulting decrease in TMP pools is expected since UMP is the precursor of TMP in T. gondii and all other apicomplexan parasites which normally lack TK activity. However, since cps1 and cps2 now express a TK activity carried into the parasite by the p53KOX3-1R plasmid, exemplified by sensitivity of these mutants to ganciclovir (specific to HSV TK), feeding parasites either thymine or thymidine is expected to increase TMP pools. Thus, it appears that moderate levels of thymine or thymidine partially rescue growth of cps1 and cps2 by restoring TMP pools. […] Since the parasite has no mechanism to convert TMP back to UMP there is still a defect in the UMP pool in cps1 and cps2 even with added thymine or thymidine and rescue is never complete. The ability of cps1 and cps2 mutants to form plaques on HFF monolayers in the standard 7 day assay paralleled the pyrimidine dependence of parasite replication in vacuoles.
The cps1 and cps2 mutants were inoculated intraperitoneally (i.p.) into balb/c mice to measure parasite virulence compared to virulent RH parasites. Both mutant cps1 and cps2 had equal virulence as RH parasites in balb/c mice (Jackson Labs), killing all mice within 10 days of i.p. inoculation (group size was four mice per parasite strain). Only 100 parasites (˜50 PFU) of each parasite strain was needed to kill all mice in each group. This pattern of virulence can be understood by re-examining the pyrimidine dependence of cps1 and cps2 growth. Uridine is believed to be the pyrimidine responsible for virulence of cps1 and cps2 in mice. Only 5 μM uridine completely rescues normal plaque size of cps1 and cps2 in vitro. Plasma concentrations of uridine in mice are approximately 5 to 10 μM.

cps1-1 and cps2-1 [5] = test: pyrimidine rescue of cps1-1 and cps2-1 replication and plaque formation; assay type: cell-based, Toxoplasma gondii; settings: for rescue of replication (doublings) of cps1-1 and cps2-1: 36-hour replication assay, HFF
Protocol: No pyrimidine compound at less than 25 μM could rescue plaque formation of cps1-1 or cps2-1. […] Uridine was quite poor at rescue of plaque formation in cps1-1 and cps2-1.
A more detailed growth response to pyrimidine, measured as parasite replications (doublings) was performed for cps1-1 and cps2-1 and compared to the results previously obtained for […]. […] Uridine rescue was poor, with a slow restoration of growth at very high amounts, >400 μM. Deoxyuridine rescue was significant, but again, full growth rate was not restored at any concentration of deoxyuridine. Rescue with uracil was robust, but only in a limited range of concentration. Full restoration of growth rate in cps1-1 and cps2-1 was possible only with uracil added between 200 and 400 μM. […] This phenotype can only be observed in T. gondii pyrimidine auxotroph mutants, not in wild-type parasites with intact de novo pyrimidine synthesis pathways.
The pyrimidine growth dependence of mutant cps1-1 on the pyrimidine salvage pathway was further documented in thymidine interference experiments. Mutant cps1-1 plaques well in 250 μM uracil or deoxyuridine, but not in 1000 μM thymidine. Since thymidine at 1000 μM is known to inhibit approximately 90% of the parasite nucleoside phosphorylase activity specific for cleavage of deoxyuridine (Iltzsch, (1993) J. Euk. Micro. 40:24-28), growth of cps1-1 was tested in combinations of 1000 μM thymidine and 250 μM uracil or 250 μM deoxyuridine. All pyrimidine salvage in T. gondii must pass through uracil and UPRT conversion of uracil to UMP. In contrast, thymidine has no effect on UPRT activity. Thus, if growth of cps1-1 were dependent on deoxyuridine supplementation then replication in this condition may be inhibited by co-supplementing with 1000 μM thymidine. […] Thus, when cps1-1 is grown in deoxyuridine the parasite strictly requires nucleoside phosphorylase activity to cleave deoxyuridine for growth. […] Thus, cps1-1 and cps2-1 rely strictly on pyrimidine salvage enzymes for growth and further, the HFF host cell in vitro cannot supply sufficient pyrimidines for growth of cps1-1 or cps2-1. […] Such potential inhibitors can only be identified using a pyrimidine auxotroph such as provided in the instant invention.
To assess reversion, 10^6 to 10^7 cps1-1 or cps2-1 parasites were periodically inoculated into HFF flasks supplemented with 5 μM uridine. This concentration of uridine is sufficient to rescue the parent strains (cps1 and cps2) of cps1-1 and cps2-1.

FUDR-1 mutant parasites = test: labeling of FUDR-1 (UPRT knock-out) parasites with [3H]pyrimidines; assay type: cell-based, Toxoplasma gondii
Protocol: as §1

tachyzoites = test: uracil incorporation assay; assay type: cell-based, Toxoplasma gondii; settings: [3H]uracil 25 μg/ml
Protocol: Experiments to evaluate the feasibility of constructing pyrimidine auxotrophs of T. gondii were performed. Pyrimidine auxotrophy relies on the ability to feed mutant parasites a pyrimidine nucleobase, such as uracil, in culture medium in amounts that will restore parasite growth to near normal levels. Experiments were therefore conducted to measure whether uracil incorporation into parasites in culture could account for normal replication and normal growth rates. In these experiments, biochemically saturating amounts of [^3H]uracil (25 μg/ml) were added to the growth medium and the quantitative incorporation of label into parasite RNA and DNA was determined over a four hour interval. It was calculated using known values that about 82% of the pyrimidines incorporated into parasite nucleic acids were derived from the uracil which was added to the growth medium as a supplement.
The uracil incorporation assay, results and calculation of uracil incorporation were carried out as follows. Parasites (2.09×10^7) were labeled for 4 hours in medium containing [^3H]uracil at 25 μg per ml or 0.223 μmole per ml, wherein the specific activity of uracil was 34.3 CPM per pmole (CPM=counts per minute). […] Based upon these parameters, it was concluded that 82% of incorporated pyrimidines originate from uracil when it is added to medium.

RH parasite = test: plaque formation of RH in very high uracil; assay type: cell-based, Toxoplasma gondii; settings: 2000 or 4000 μM uracil

Row | Compound | ganciclovir concentration at which ability to form plaques is lost [1] [µM] | sensitivity of cps1-1 and cps2-1 to ganciclovir (cps1-1 and cps2-1 [2]) | ganciclovir concentration in which parasites do not form plaques [3] [μm] | inhibition of parasite nucleoside phosphorylase activity [4] | incorporation of [3H]-labeled pyrimidine into wild-type parasites (wild-type T. gondii) | rescue of growth rate / replication of cps1 and cps2 (cps1 and cps2 mutants) | rescue of replication of cps1 and cps2 (cps1 and cps2 mutants; very high concentrations) | plaque formation of cps1-1 (cps1-1 and cps2-1 [5]; 1000 μM thymidine) | effect on deoxyuridine-dependent growth of cps1-1 (cps1-1 and cps2-1 [5]; 1000 μM thymidine plus 250 μM deoxyuridine) | effect on UPRT or uracil dependent growth of cps1-1 (cps1-1 and cps2-1 [5]; 1000 μM thymidine plus 250 μM uracil) | rescue of replication (doublings) of cps1-1 and cps2-1 (cps1-1 and cps2-1 [5]) | rescue of plaque formation of cps1-1 and cps2-1 (cps1-1 and cps2-1 [5]; plaque assay) | labeling of FUDR-1 mutant parasites with [3H]pyrimidine (FUDR-1 mutant parasites) | plaque formation of cps1-1 (cps1-1 and cps2-1 [5]; 250 μM supplement) | plaque formation of cps1-1, cps2-1, cps1 and cps2 (cps1-1 and cps2-1 [5]; 2000 or 4000 μM uracil) | uracil concentration above which growth rate is reduced significantly (cps1-1 and cps2-1 [5]; cps1-1, cps2-1) [µM] | rescue of plaque formation of cps1-1 and cps2-1 (cps1-1 and cps2-1 [5]; pyrimidine concentrations up to 200 μM) | actual incorporation (tachyzoites) | effect on RH parasite plaques (RH parasite)
1 | Nc1nc(O)c2ncn(COC(CO)CO)c2n1 [ganciclovir] | 0.5 | loss of sensitivity | 0.5 | – | – | – | – | – | – | – | – | – | – | – | – | – | – | – | –
2 | Cc1cn([C@H]2C[C@H](O)[C@@H](CO)O2)c(=O)[nH]c1=O [thymidine] | – | – | – | approximately 90% | did not incorporate | partially rescued | did not rescue replication | not | did block | did not affect | remained as a single non-replicated parasite | no response was detected | – | – | – | – | – | – | –
3 | O=c1cc[nH]c(=O)[nH]1 [uracil] | – | – | – | – | incorporated into wild-type T. gondii | completely rescued | – | – | – | – | robust | significant growth rescue | not labeled | plaques well | do not even form plaques | > 500 | completely rescued | 0.00032 pmoles pyrimidine per tachyzoite per 4 hours | no effect
